Data: PubChem BioAssay AID504896 (The Scripps Research Institute Molecular Screening Center, 2011)
pEC50: −log10 of the molar value.

Molecular target: cAMP-dependent protein kinase type I-alpha regulatory subunit (Bos taurus) + cAMP-dependent protein kinase catalytic subunit beta (Mus musculus) (UniProt P00514+P68181)
Experiment: PKA-R1A complex activators, counter-screen titration – biochemical, Cy5-IP20 fluorescence polarization, 1536-well, triplicate, counter-screen for PKA-R2B activator project, dose response (AID 504896)
Conditions: PKA-R1A holoenzyme, activation

Structure (SMILES) | pEC50
CCOP1(=O)OCC2OC(n3cnc4c(N)ncnc43)C(O)C2O1 (stereo not given) | 5.57
Nc1nc2c(nc(Br)n2[C@@H]2O[C@@H]3COP(=O)(O)O[C@H]3[C@H]2O)c(=O)[nH]1 | 5.11
CCCC(=O)Nc1ncnc2c1ncn2[C@@H]1O[C@@H]2OP(=O)(O)OC[C@H]2[C@H]1OC(=O)CCC | 5.17

The next molecules have a higher pEC50 than those just listed; values first:

pEC50 | Structure (SMILES)
7.46 | Nc1ncnc2c1nc(Br)n2[C@@H]1O[C@@H]2COP(=O)(O)O[C@H]2[C@H]1O
7.49 | Nc1ncnc2c1nc(Sc1ccc(Cl)cc1)n2[C@@H]1O[C@@H]2COP(=O)(O)O[C@H]2[C@H]1O
